melting point [°C]	Compound
62 to 64	CC(=O)/C=C/Sc1ccc2ccccc2c1
108 to 111	COc1ccc(N2C=CN(CCC(C)(C)NCC(O)c3ccc(OCc4ccccc4)c(CO)c3)C2)cc1 (centres undefined)
62 to 63.5	O=C1c2ccccc2C(=O)N1c1cc(Cl)c(OC(F)(F)C(F)(F)Br)c(Cl)c1
122 to 123	CCCc1nn(-c2ccc(C(F)(F)F)cn2)cc1CCCOc1c(CC(=O)O)cccc1OC
146 to 149	C=C1OC(=NN)C(c2ccccc2)C(=O)N1C(C)(C)C(=O)Nc1cc(Cl)cc(Cl)c1 (centres undefined)
184 to 185	COc1cc(C)nc2c(OCc3c(Cl)ccc(NC(=O)CN4C(=O)c5ccccc5C4=O)c3Cl)cccc12
237 to 238	COc1ccc(CN2C(=O)[C@H]3CCC[C@H]3N(C(=O)CN3C(=O)c4ccccc4C3=O)c3ccccc32)cc1 (relative stereo)
275 to 276	CC(C)(C1CCCCC1)C(NC(=O)c1ccc(Cl)cc1)Nc1c(Nc2cccnc2)c(=O)c1=O (centres undefined)
45 to 47	COc1cc2c(cc1F)C1(CO2)C(=O)N(Cc2ccc(C(F)(F)F)o2)c2ccccc21 (centres undefined)
180 to 181	CCOC(=O)c1cc2cccc(NS(=O)(=O)c3ccc(Cl)s3)c2[nH]1
180 to 182	CCCCc1nc2cc(C(=O)O)ccc2n1Cc1ccc(-c2ccccc2-c2nnn[nH]2)cc1
125 to 127	CNC(=O)Nc1cccc(C2=NC(C)(C)Cc3cc(OC)c4c(c32)CC(C)(C)O4)c1
100 to 102	CC(C)(C)c1ccc(Oc2cccc(C(=O)NCCN(O)C(N)=O)c2)cc1
214 to 215	Cc1ccc(NC(=O)c2ccsc2)cc1-c1nc(N(C)C)nc2c1CNC(=O)N2c1c(F)cccc1F
247 to 249	Cn1cc(-c2cc3cccnc3[nH]2)c2ccc(C(=O)NC(CO)CO)cc21
262 to 265	Cc1cc(C(C)(C)C)c(OC(=O)c2ccccc2C(=O)Oc2c(C(C)(C)C)cc(C)cc2C(C)(C)C)c(C(C)(C)C)c1
> 300	O=c1c2ccc(O)cc2oc2c1oc1ccccc12

melting point [°C]	Compound
94 to 96	CC(O)(COc1ccc(S(=O)(=O)c2ccccc2)cc1)C(F)(F)F (centres undefined)
138 to 139	COc1ccccc1COc1ccc(-c2cc(O)c(SCCc3ccccc3)c(=O)o2)cc1
112 to 114	CO/N=C(\C(=O)O)c1ccccc1COc1cc(C)ccc1C
281 to 283	CCOc1c(NCc2c(C)cccc2C)c(=O)c1=O
100 to 103	O=C(OCc1ccccc1)c1ccc(OC(=O)c2ccccc2C(=O)Oc2ccc(C(=O)OCc3ccccc3)cc2)cc1
111 to 113	COc1cccc([C@H]2O[C@H](CC(=O)NCCCC(=O)O)C(=O)N(CC(C)(C)CO)c3ccc(Cl)cc32)c1OC
125 to 126	CC(C)(C)OC(=O)NC(=N)NC(=O)OCc1ccccc1
165 to 167	COCCNC(=O)c1cc(C(=O)OC)c2cc(Cc3ccc(F)cc3)cnc2c1O
196	COc1cccc(N2CCN(S(=O)(=O)c3cccc(/C=C/C(=O)NO)c3)CC2)c1
128 to 130	Nc1c(C(=O)c2ccccc2)[nH]c2cc(Cl)ccc12
112 to 113	Cc1cccc(COc2cccc(O)c2)c1C(=O)O
252 to 254	Cc1cc2oc(NC(=O)Nc3c(C)cccc3C)c(-c3ccccc3Cl)c2cc1C
100 to 103	COC(=O)c1cc(CCN(C)CCCC(C#N)(c2ccc(OC)c(OC)c2)C(C)C)cc(C(=O)OC)c1 (centres undefined)
134 to 135	Cc1nc(COc2ccc(Cl)cc2)sc1C(=O)N[C@H](C)[C@](O)(Cn1cncn1)c1ccc(F)cc1F
148 to 150	CC(C)(CC(=O)C(=O)Nc1cc2c(cc1Br)C(=O)OC2)c1ccccc1
123 to 124	CC#Cc1ccc(NC(=O)c2ccccc2NCc2ccc(OC)nc2)cc1C(F)(F)F

Continued, compound first:

Compound	melting point [°C]
O=c1c(I)coc2ccccc12	95 to 97
NC(=O)CCCCCCCCCCC(=O)O	129 to 131
COc1ccccc1N1CCN(CCC2C(=O)NCN3CCC4SC=C(C4=O)C(=O)C23)CC1 (centres undefined)	162 to 164
CCc1nn(C2CCCC2)c2cc(C(=O)Nc3c(Cl)cccc3Cl)ccc12	177 to 179
CCCCC(=O)c1c(-c2ccncc2)[nH]c(-c2ccncc2)c1C	88 to 89
COc1ccc(Nc2cc(C)nc(N)n2)cc1Cl	250
C=Cc1cc(C)c(C(=O)N=C(N)N)cc1S(C)(=O)=O	223 to 226
O=C(Nc1cccc(S(=O)(=O)NCc2ccncc2)c1)c1cnn2c(C(F)F)cc(-c3ccc(C(F)(F)F)cc3)nc12	221
COC(=O)COc1ccc(C(=O)CCCl)cc1	89 to 90
Fc1ccc2[nH]cc(C3=CCN(CC4COc5cccnc5O4)CC3)c2c1 (centres undefined)	124
O=C(O)CCCC/C=C/c1ccccc1CO	92 to 94.5
CCCc1c(OCCCCC(=O)N(CC)CC)ccc(C(C)=O)c1O	95 to 97
CC(C)C[C@H](NC(=O)c1cnccn1)C(=O)O	36 to 38
O=C(NCCSCc1cccc([N+](=O)[O-])c1)c1c(Cl)cccc1Cl	76 to 78
O=[N+]([O-])c1ccc2c(c1)S(=O)(=O)NCN2CC(F)(F)F	191 to 193
c1ccc(C(c2ccccc2)c2ccncc2)cc1	124 to 126
NC(=O)N1CCN(c2nn(-c3ccc(F)cc3)c3ccccc23)CC1	148 to 150
C=CCc1c(C)nc2c(OCc3ccccc3)cccn12	90.5 to 91.5
CCCC(=O)N[C@H]1C[C@H](C(=O)OC)Nc2cc(Cl)cc(Cl)c21 (relative stereo)	205 to 206
N#CC(=O)c1ccccc1Cl	33
CCOC(=O)c1c(C)ncn(-c2ccc(Cl)cc2)c1=O	98 to 100
CCCc1nc2c(C)cnc(C(=O)OC)c2n1Cc1ccc(-c2ccccc2-c2nnnn2C(c2ccccc2)(c2ccccc2)c2ccccc2)cc1	239 to 242

Compound	melting point [°C]
O=C1COc2cc(SCc3ccccc3)ccc2N1	153 to 154
Cc1cccc2c1CCCC2c1c[nH]cn1 (centres undefined)	135
O=C1Nc2cc(Cl)c(Cl)cc2C1(Br)c1ccccc1Cl (centres undefined)	215 to 218
Clc1cncc(Oc2cccc(Cl)n2)c1	46 to 47
CN1CCC2(CC1)Oc1ccccc1Cn1cccc12	100 to 101
CC1(C)[C@@H](Cn2nccn2)CC[C@@]1(C)NCC(=O)N1C[C@@H](F)C[C@H]1C#N	84 to 87
Cc1c(Cl)nc(N2CCNCC2)nc1NC(C)C	199
CC1CC(=O)N(C)N=C1c1ccc2c(c1)OCC(=O)N2 (centres undefined)	204 to 206
C#CCNc1c(-c2c(F)cc(F)cc2F)c(Cl)nc2ncnn12	141
CCCCCCCCCCCCCCCCNc1ccc(C(=O)OCCCO)cc1	67 to 69
O=C(Nc1cnccn1)N1CCN(c2nc(-c3cccc(F)c3)cs2)CC1	158 to 159
C=CCn1c(=O)c2[nH]c(C34CC5CC(CC3C5)C4)nc2n(CCC)c1=O	191 to 192
CC1(C)OC[C@H](Cn2cc3nccc(I)c3n2)O1	85 to 87
O=C(O)c1ccc(-c2csc(-c3ccc(C(F)(F)F)cc3)n2)cc1	275 to 276
C1CCC(N2CCCC2)C2NCCCC2C1 (centres undefined)	30 to 35
C=CCSc1nc(N)nc2c1ncn2C1C=CC(CO)C1 (centres undefined)	108 to 110
O=Cc1cn(-c2ccccc2)nc1O	196 to 197
Cc1cc(Cl)nc(Cl)c1N	83 to 85
Cc1c(SCCCN2CCN(Cc3ccc(Cl)s3)CC2)ccnc1CSc1nc2cc(F)c(F)cc2[nH]1	79 to 82
COc1cc(OC)cc(Sc2ccc([N+](=O)[O-])cc2)c1	63 to 65
N=C(NO)c1ccc(-c2ccc(-c3ccc(C(=N)NO)o3)o2)nc1	248 to 250
N#Cc1cnc2c(sc3ccc([N+](=O)[O-])cc32)c1Nc1cccc(Br)c1	> 300

Compound	melting point [°C]
CC(C)(C)Nc1nccc(C#Cc2ccc(F)cc2)n1	97 to 99
Cn1ncnc1COc1nc2c(-c3ccccc3F)nncn2c1-c1ccccc1	195
CCC(=O)NCCc1c[nH]c2cc(Cl)c(OC)cc12	100 to 101
O=C(O)C1(S(=O)(=O)c2ccc(OCC#CCN3CCOCC3)cc2)CCN(Cc2ccc(Br)cc2)CC1	198
CCCC[C@H](F)C(=O)N[C@@H](C)c1ccc([N+](=O)[O-])cc1	84.5 to 86.5
CCC(=O)OCC1OC(n2cnc3c(=O)[nH]c(N)nc32)C(F)C1OC(=O)CC (centres undefined)	198 to 200
O=C(CCl)N(c1ccccc1)c1cccc(F)c1	115 to 117
Cc1ccc(S(=O)(=O)Oc2ccc(S(=O)(=O)C3(C(=O)C(C)C)CC3)cc2)cc1	106 to 107
O=S(=O)(c1ccc(OCCCBr)cc1)c1c(-c2ccccc2)cn2ccccc12	199
CC(=NO)c1cccc(N)c1	133
CC(=O)Nc1cc(C)c2c(c1C)CC(C)(C)O2	161 to 162
NS(=O)(=O)c1ccc(-n2cccc2-c2ccc(F)cc2)cc1	198 to 199
CCCN(CCC)Cc1cnc(-c2ncn3c2CN(C)C(=O)c2c-3ccc(F)c2Cl)o1	110 to 112
COC(=O)c1nc(Cl)c(F)c(N)c1/C=C/Cl	128 to 130
O=C(O)COc1cc(C(=O)O)ccc1NC(=O)NC(=O)c1ccc(F)cc1Cl	279 to 281
O=C(Nc1ccc(N2CCNCC2)c(C(F)(F)F)c1)c1ccc(F)c(OCc2cccnc2)c1	61 to 66
COc1cc2[nH]c(SCc3nccc(N4CCOCC4)c3F)nc2cc1C	124 to 126
CN1C(=O)CC[C@]2(C)c3ccc(-c4ccc5c(c4)OCO5)cc3CC[C@@H]12	146 to 152
CC1CC(=O)c2c(SCc3ccccc3)ccc(-c3ccccn3)c2C1 (centres undefined)	163 to 165
COC(=O)C1C(c2ccccc2)OC(=O)N1C(c1ccccc1)c1ccccc1 (centres undefined)	99 to 102
COc1ccc(-c2ccc(C=O)cc2)cc1	99 to 100
CCOC(=O)c1c[nH]c2nc(NCc3ccc(Br)cc3)nn2c1=O	286 to 287

Source: a melting point compilation (Tetko et al.; mined from patent text by program, amines drawn as free bases though some values may be those of a salt)
